# In patent US11155523B2, “Biphenyl compound as CCR2/CCR5 receptor antagonist” (Medshine Discovery Inc., priority 2016, dated 2021):
# Biological target: T1, CCR5 (Homo sapiens, UniProt P51681)
# T1 construct: expressed in transfected cells; host or cells: HEK293, clone C13, passage P4
# Experiment: CCR5 in vitro test: intracellular calcium signal detected by FLIPR
# Format: cell-based
# Details: HEK293 cells expressing CCR5, agonist RANTES at EC80, calcium signal
# Experimental: (§1) Experimental Example 1: CCR2/CCR5 In Vitro Test
# (§2) The intracellular calcium signal was detected by FLIPR, and the IC50 value of the compound was used as an index to evaluate the inhibitory effect of the compound on CCR2 and CCR5 receptors.
# (§3) 1. Cell line: The cells were inoculated and incubated in a 5% CO2 incubator at 37° C. overnight.
# (§4) CCR2/CCR5 density: 1 M (20 k/well)
# (§5) 2. Reagents: Fluo-4 Direct, (Invitrogen, Cat #F10471)
# (§6) The compound was dissolved in DMSO to prepare a 10 mM solution, and the compound solution was placed in a nitrogen box.
# (§7) Agonist reference compounds:
# (§8) Preparation of probenecid in FLIPR assay buffer: 1 mL of FLIPR assay buffer was added to […] of probenecid to prepare a 250 mM solution, which is prepared fresh daily.
# (§9) 2× (8 μM) Fluo-4 Direct™ Loading Buffer (per 10 mL) • Thaw a bottle of Fluo-4 Direct™ crystal (F10471). • Add 10 mL of FLIPR assay buffer to the vial. • Add 0.2 mL of probenecid to each 10 mL of Fluo-Direct. The final concentration of the assay was 2.5 mM. • Rotate it and place for >5 minutes (in absence of light). • Prepare fresh daily.
# (§10) MCP-1 was diluted in FLIPR assay buffer 1:2 into 10 points, starting at 0.5 uM (final 100 nM). RANTES was diluted in FLIPR assay buffer 1:3 into 10 points, starting at 0.5 uM (final 100 nM). 20 uL of serially diluted compound buffer was added to each well of the DRC plate according to the compound plate map.
# (§11) Standard compound was diluted in DMSO 1:3 into 11 points, starting at 1 mM. Test compound was diluted in DMSO 1:3 into 11 points, starting at 2 mM. 250 nL of compound solution was transferred into a cell plate using Echo (Greiner #781946).
# (§12) (c) Take the cell plate out of the incubator, and gently dispense 20 uL of 2× Fluo-4 Direct wash-free loading buffer into a 384-well cell culture plate using a pipette. The final cell plate is 40 μL in volume.
# (§13) (d) Incubate for 50 minutes at 37° C. under 5% CO2, and for 10 minutes at room temperature.
# (§14) (e) Take the cell plate out of the incubator, and place it in FLIPR. Place the composite plate and the tip box in FLIPR.
# (§15) (f) For DRC plate: • 1) Run the program on FLIPRTETRA. • 2) Read the fluorescent signal. • 3) Transfer 10 μL of compound from the DRC plate to the cell plate. • 4) Read the fluorescent signal. • 5) Calculate the “maximum−minimum” from Read 90 to the maximum allowed. Use FLIPR to calculate the EC80 value of each cell line. • 6) Prepare 5×EC80 concentration of the agonist reference compound.
# (§16) (g) For the composite plate (1-add): • 1) Run the program on FLIPRTETRA. • 2) Transfer 10 μl, of 5×EC80 concentration of the agonist reference compound from the composite plate to the cell plate. • 3) Read the fluorescent signal. • 4) Calculate the “maximum−minimum” from Read 90 to the maximum allowed.
# (§17) (h) Analyze the data using Prism, and calculate the IC50 value of the compound.
# T1 sequence (P51681 whole entry, species assumed): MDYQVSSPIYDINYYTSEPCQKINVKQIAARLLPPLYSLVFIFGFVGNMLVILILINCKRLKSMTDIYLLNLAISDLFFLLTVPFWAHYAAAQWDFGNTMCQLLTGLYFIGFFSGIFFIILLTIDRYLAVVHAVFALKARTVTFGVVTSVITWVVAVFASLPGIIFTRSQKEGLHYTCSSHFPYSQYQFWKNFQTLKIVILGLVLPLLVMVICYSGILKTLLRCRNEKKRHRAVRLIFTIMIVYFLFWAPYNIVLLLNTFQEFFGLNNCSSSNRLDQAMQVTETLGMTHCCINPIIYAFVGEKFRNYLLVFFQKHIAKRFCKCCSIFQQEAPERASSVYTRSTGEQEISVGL
row,Structure (SMILES),IC50 [nM]
1,CCCOCCOc1ccc(-c2ccc(OC)c(/C=C/C(=O)Nc3ccc([S@@+]([O-])Cc4c(C)ncn4CC)cc3)c2)cc1 [WX065],68
2,CCCOCCOc1ccc(-c2ccc(OC)c(/C=C/C(=O)Nc3ccc([S@+]([O-])Cc4c(C)ncn4CC)cc3)c2)cc1 [WX066],10.1
3,CCCOCCOc1ccc(-c2ccc(OCC)c(/C=C/C(=O)Nc3ccc([S@@+]([O-])Cc4cncn4CCC)cc3)c2)cc1 [WX067],0.9
4,CCCOCCOc1ccc(-c2ccc(OCC)c(/C=C/C(=O)Nc3ccc([S+]([O-])Cc4c(C)ncn4CCC)cc3)c2)cc1 (centres unmarked) [WX069],1
5,CCCCOCCOc1ccc(-c2ccc(C(F)(F)F)c(/C=C/C(=O)Nc3ccc([S@@+]([O-])Cc4c(C)ncn4CC)cc3)c2)cc1 [WX070],8.4
6,CCCCOCCOc1ccc(-c2ccc(C(F)(F)F)c(/C=C/C(=O)Nc3ccc([S@+]([O-])Cc4c(C)ncn4CC)cc3)c2)cc1 [WX071],3.4
7,CCCCOCCOc1ccc(-c2ccc(C3CCCC3)c(/C=C/C(=O)Nc3ccc([S@@+]([O-])Cc4c(C)ncn4CC)cc3)c2)cc1 [WX072],5.9
8,CCCCOCCOc1ccc(-c2ccc(C3CCCC3)c(/C=C/C(=O)Nc3ccc([S@+]([O-])Cc4c(C)ncn4CC)cc3)c2)cc1 [WX073],6.5
9,CCCOCCOc1ccc(-c2ccc(OC(F)F)c(/C=C/C(=O)Nc3ccc([S@+]([O-])Cc4c(C)ncn4CC)cc3)c2)cc1 [WX074],3.5
10,CCCCOCCOc1ccc(-c2ccc(OC)c(/C=C/C(=O)Nc3ccc([S@+]([O-])Cc4c(C)ncn4CCC)cc3)c2)cc1 [WX075],2.4
11,CCCCOCCOc1ccc(-c2ccc(OC)c(/C=C/C(=O)Nc3ccc([S@@+]([O-])Cc4c(C)ncn4CCC)cc3)c2)cc1 [WX076],8.5
12,CCCOCCOc1ccc(-c2ccc(OC(F)F)c(/C=C/C(=O)Nc3ccc([S@+]([O-])Cc4c(C)ncn4CCC)cc3)c2)cc1 [WX080],15.1
13,CCCCOCCOc1ccc(-c2ccc(OC(F)F)c(/C=C/C(=O)Nc3ccc([S@+]([O-])Cc4c(C)ncn4CCC)cc3)c2)cc1 [WX081],5.5
14,CCCCOCCOc1ccc(-c2ccc(OC(F)F)c(/C=C/C(=O)Nc3ccc([S@@+]([O-])Cc4c(C)ncn4CCC)cc3)c2)cc1 [WX082],11.4
15,CCCCOCCOc1ccc(-c2ccc(OC)c(/C=C/C(=O)Nc3ccc([S@+]([O-])Cc4cncn4CCC)cc3)c2)cc1 [WX085],5.6
16,CCCCOCCOc1ccc(-c2ccc(OC)c(/C=C/C(=O)Nc3ccc([S+]([O-])Cc4cnccc4CC)cc3)c2)cc1 (centres unmarked) [WX086],1.8
17,CCCCOCCOc1ccc(-c2cc(C)c(OC)c(/C=C/C(=O)Nc3ccc([S@+]([O-])Cc4c(C)ncn4CC)cc3)c2)cc1 [WX090],6.9
18,CCCCOCCOc1ccc(-c2ccc(F)c(/C=C/C(=O)Nc3ccc([S@+]([O-])Cc4c(C)ncn4CC)cc3)c2)cc1 [WX091],4.4
19,CCCCOCCOc1ccc(-c2cc(C)cc(/C=C/C(=O)Nc3ccc([S@+]([O-])Cc4c(C)ncn4CC)cc3)c2)cc1 [WX092],10.1

# Biological target: T2, CCR2 (Homo sapiens, UniProt P41597)
# T2 construct: expressed in transfected cells; host or cells: HEK293, clone C7, passage P6
# Experiment: CCR2 in vitro test: intracellular calcium signal detected by FLIPR
# Format: cell-based
# Details: HEK293 cells expressing CCR2, agonist MCP-1 at EC80, calcium signal
# Experimental: as §1, §2, §3, §4, §5, §6, §7, §8, §9, §10, §11, §12, §13, §14, §15, §16, §17
# T2 sequence (P41597 whole entry, species assumed): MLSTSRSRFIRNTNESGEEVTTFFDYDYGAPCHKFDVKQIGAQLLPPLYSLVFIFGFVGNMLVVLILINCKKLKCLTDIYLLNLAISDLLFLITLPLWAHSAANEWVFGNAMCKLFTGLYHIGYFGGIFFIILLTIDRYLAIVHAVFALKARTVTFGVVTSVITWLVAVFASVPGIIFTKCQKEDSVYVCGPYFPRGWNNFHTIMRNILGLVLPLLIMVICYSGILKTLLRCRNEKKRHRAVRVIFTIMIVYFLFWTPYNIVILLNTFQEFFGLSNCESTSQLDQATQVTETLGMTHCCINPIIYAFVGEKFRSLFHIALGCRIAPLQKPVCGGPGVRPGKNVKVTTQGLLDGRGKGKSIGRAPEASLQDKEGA
row,Structure (SMILES),IC50 [nM]
1,CCCOCCOc1ccc(-c2ccc(OC)c(/C=C/C(=O)Nc3ccc([S@@+]([O-])Cc4c(C)ncn4CC)cc3)c2)cc1 [WX065],49.6
2,CCCOCCOc1ccc(-c2ccc(OC)c(/C=C/C(=O)Nc3ccc([S@+]([O-])Cc4c(C)ncn4CC)cc3)c2)cc1 [WX066],6.5
3,CCCOCCOc1ccc(-c2ccc(OCC)c(/C=C/C(=O)Nc3ccc([S@@+]([O-])Cc4cncn4CCC)cc3)c2)cc1 [WX067],16.8
4,CCCOCCOc1ccc(-c2ccc(OCC)c(/C=C/C(=O)Nc3ccc([S+]([O-])Cc4c(C)ncn4CCC)cc3)c2)cc1 (centres unmarked) [WX069],35.3
5,CCCCOCCOc1ccc(-c2ccc(C(F)(F)F)c(/C=C/C(=O)Nc3ccc([S@@+]([O-])Cc4c(C)ncn4CC)cc3)c2)cc1 [WX070],39.2
6,CCCCOCCOc1ccc(-c2ccc(C(F)(F)F)c(/C=C/C(=O)Nc3ccc([S@+]([O-])Cc4c(C)ncn4CC)cc3)c2)cc1 [WX071],4.5
7,CCCCOCCOc1ccc(-c2ccc(C3CCCC3)c(/C=C/C(=O)Nc3ccc([S@@+]([O-])Cc4c(C)ncn4CC)cc3)c2)cc1 [WX072],11.9
8,CCCCOCCOc1ccc(-c2ccc(C3CCCC3)c(/C=C/C(=O)Nc3ccc([S@+]([O-])Cc4c(C)ncn4CC)cc3)c2)cc1 [WX073],11.9
9,CCCOCCOc1ccc(-c2ccc(OC(F)F)c(/C=C/C(=O)Nc3ccc([S@+]([O-])Cc4c(C)ncn4CC)cc3)c2)cc1 [WX074],5.4
10,CCCCOCCOc1ccc(-c2ccc(OC)c(/C=C/C(=O)Nc3ccc([S@+]([O-])Cc4c(C)ncn4CCC)cc3)c2)cc1 [WX075],17.3
11,CCCCOCCOc1ccc(-c2ccc(OC)c(/C=C/C(=O)Nc3ccc([S@@+]([O-])Cc4c(C)ncn4CCC)cc3)c2)cc1 [WX076],42.2
12,CCCOCCOc1ccc(-c2ccc(OC(F)F)c(/C=C/C(=O)Nc3ccc([S@+]([O-])Cc4c(C)ncn4CCC)cc3)c2)cc1 [WX080],25.1
13,CCCCOCCOc1ccc(-c2ccc(OC(F)F)c(/C=C/C(=O)Nc3ccc([S@+]([O-])Cc4c(C)ncn4CCC)cc3)c2)cc1 [WX081],12.5
14,CCCCOCCOc1ccc(-c2ccc(OC(F)F)c(/C=C/C(=O)Nc3ccc([S@@+]([O-])Cc4c(C)ncn4CCC)cc3)c2)cc1 [WX082],53.4
15,CCCCOCCOc1ccc(-c2ccc(OC)c(/C=C/C(=O)Nc3ccc([S@+]([O-])Cc4cncn4CCC)cc3)c2)cc1 [WX085],5.2
16,CCCCOCCOc1ccc(-c2ccc(OC)c(/C=C/C(=O)Nc3ccc([S+]([O-])Cc4cnccc4CC)cc3)c2)cc1 (centres unmarked) [WX086],13
17,CCCCOCCOc1ccc(-c2cc(C)c(OC)c(/C=C/C(=O)Nc3ccc([S@+]([O-])Cc4c(C)ncn4CC)cc3)c2)cc1 [WX090],5.5
18,CCCCOCCOc1ccc(-c2ccc(F)c(/C=C/C(=O)Nc3ccc([S@+]([O-])Cc4c(C)ncn4CC)cc3)c2)cc1 [WX091],4.7
19,CCCCOCCOc1ccc(-c2cc(C)cc(/C=C/C(=O)Nc3ccc([S@+]([O-])Cc4c(C)ncn4CC)cc3)c2)cc1 [WX092],3.9
